This note sets out measurements from article PMC7616174, “Development of Novel 4-Arylpyridin-2-one and 6-Arylpyrimidin-4-one Positive Allosteric Modulators of the M1 Muscarinic Acetylcholine Receptor” (ChemMedChem, 2020).

This assay concerns the target T1, hM1 mAChR (Homo sapiens, UniProt P11229).
T1 construct: expressed in transfected cells
T1 sequence (P11229 1-460): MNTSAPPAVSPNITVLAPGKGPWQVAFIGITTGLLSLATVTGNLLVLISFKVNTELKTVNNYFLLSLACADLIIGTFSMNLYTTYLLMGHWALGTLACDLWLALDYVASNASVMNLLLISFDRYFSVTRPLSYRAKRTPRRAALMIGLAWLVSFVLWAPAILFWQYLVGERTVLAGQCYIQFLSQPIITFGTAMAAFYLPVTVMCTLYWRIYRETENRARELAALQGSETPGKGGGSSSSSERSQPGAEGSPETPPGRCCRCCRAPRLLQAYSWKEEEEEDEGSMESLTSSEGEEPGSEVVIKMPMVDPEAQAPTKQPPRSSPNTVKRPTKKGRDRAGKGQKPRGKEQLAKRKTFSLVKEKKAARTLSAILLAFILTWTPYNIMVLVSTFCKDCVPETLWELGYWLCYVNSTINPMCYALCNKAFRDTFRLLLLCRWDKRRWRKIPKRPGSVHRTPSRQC
Nature of the assay: IP1 accumulation assay (ACh concentration-response curves in absence or presence of modulator). Format: cell-based. Particulars: FlpIn CHO hM1 cells, mean ± SEM, 3 experiments; for ΔpEC50 [1 μM]: change in ACh pEC50 in presence of M1 PAM compared to control curve / activation at 1 µM: 1 μM modulator; for activation at 1 µM: read-out: Δbaseline [1 μM]: change in basal response in presence of M1 PAM compared to control curve; for activation at 10 µM: read-out: Δbaseline [10 μM]: change in basal response in presence of M1 PAM compared to control curve. How it is done: Functional activity of the synthesized analogues as racemic mixtures was investigated in IP1 accumulation assays at the M1 mAChR, as described previously.[13–14] ACh concentration-response curves were generated in the absence or presence of a 1 and 10 μM concentration of each modulator. The change in baseline activity (Δbaseline) is an approximate measure of direct allosteric agonism (τB), whereas the pEC50 shift (ΔpEC50) is an approximate measure of functional cooperativity (αβ) of each modulator with ACh in the investigated signalling pathway. We aimed to identify modulators with various degrees of allosteric agonism and modulatory effects on ACh response, as these could generate distinct in vivo outcomes for applications in different conditions in the CNS or gastrointestinal (GI) tract.[[10g,h,j]]
The compounds were then fully characterised in two functional assays (Figure 2C and D); the Gq-coupled IP1 accumulation assay (Figure S2), which was used for the initial screening of the compounds, and a β-arrestin 2 recruitment assay (Figure S3). The operational efficacy (τB) values for the modulators and their functional cooperativity estimates with ACh (logαβACh) at both signalling pathways were estimated by applying an operational model of allosterism and agonism to the data [Eq. (3)],[16] and are listed in Table 5.
FlpIn CHO cells stably expressing the hM1 mAChR were seeded at 25000 per well of 96-well transparent cell culture plates and grown overnight. […] Cells were then stimulated with increasing concentration of ACh in the absence or presence of increasing concentrations of each modulator for 1 h at 37°C. […] Seven μL of cell lysates were transferred into wells of 384-well Proxiplates (Perki-nElmer Life Sciences), and IP1 levels were measured using the IP-One assay kit (Cisbio, Codolet, France). […] The signal was expressed as the HTRF ratio, interpolated from the standard curve, and normalized to the maximum response to ACh.
Changes in both baseline and pEC50 were quantified by subtracting the estimates at each M1 PAM concentrations with the control values. Propagation of the error on baseline and potency values were determined as follows [Eq. (1)]: σΔ=σPAM2+σcont.2 where σΔ is the standard error of the mean (SEM) for the change in value, and σPAM and σcont. are the SEM from the three-parameter logistic equation analysis in presence or absence of M1 PAM, respectively.
Functional interaction studies between ACh and allosteric modulators in IP1 and β-arrestin 2 recruitment assays were analysed according to a three-parameter logistic equation or the following operational model of allosterism and agonism [Eq. (3)].[16] E=Basal+(Em−Basal)([A](KB+αβ[B])+τB[B]EC50)^n/EC50n(KB+[B])^n+([A](KB+αβ[B])+τB[B]EC50)^n where Em is the maximal possible system response, and Basal is the response in the absence of agonist. [A] and [B] are concentrations of orthosteric and allosteric ligands, respectively. KB is the equilibrium dissociation constant of allosteric ligand, and EC50 is the concentration of orthosteric agonist required to achieve half maximal response. α and β represent the magnitude of the allosteric effects on orthosteric ligand affinity and efficacy, respectively; τB is the efficacy of allosteric ligand, and n is the slope factor of the transducer function that links occupancy to response.

For “4-(2-(Benzyloxy)phenyl)-1-(2-hydroxycyclohexyl)pyridin-2(1H)-one [Compound 27d]”, the “ΔpEC50 [1 μM]: change in ACh pEC50 in presence of M1 PAM compared to control curve” value (from here on “ΔpEC50 [1 μM]: change in ACh pEC50”) was determined as 0.75±0.06. For the same molecule, for the setting “10 μM modulator”, the “Δbaseline [10 μM]: change in basal response in presence of M1 PAM compared to control curve” value was 54.6±1.9 % of ACh maximal (Emax) response and the “ΔpEC50 [10 μM]: change in ACh pEC50 in presence of M1 PAM compared to control curve” value (“ΔpEC50 [10 μM]: change in ACh pEC50” for short) is listed as 1.83±0.11.

Regarding `COc1cccc(OCc2ccc(-c3cnn(C)c3)cc2)c1-c1cc(=O)n([C@H]2CCCC[C@@H]2O)cn1` (racemic) [Compound 26c, 3-(2-Hydroxycyclohexyl)-6-(2-methoxy-6-((4-(1-methyl-1H-pyra-zol-4-yl)benzyl)oxy)phenyl)pyrimidin-4(3H)-one], the “ΔpEC50 [1 μM]: change in ACh pEC50” value is reported as 0.02±0.06 and the activation at 1 µM amounted to 1.37 ± 1.6%. The activation at 10 µM (10 μM modulator) worked out at 5.99 ± 1.7%.

Turning to `Cc1ccc(OCc2ccc(-c3cnn(C)c3)cc2)c(-c2ccn(C3CCCCC3O)c(=O)c2)c1` (centres unmarked) [Compound 7a, 1-(2-Hydroxycyclohexyl)-4-(5-methyl-2-((4-(1-methyl-1H-pyrazol-4-yl)benzyl)oxy)phenyl)pyridin-2(1H)-one], the activation at 1 µM is 0.47 ± 2%. Besides, where the note is “10 μM modulator”, the “ΔpEC50 [10 μM]: change in ACh pEC50” value was determined as 0.41±0.07 and the activation at 10 µM was determined as 4.4 ± 2%.

`Cc1ccc(-c2ccn(C3CCCCC3O)c(=O)c2)c(OCc2ccc(-c3cnn(C)c3)cc2)c1` (centres unmarked) [Compound 7b, 1-(2-Hydroxycyclohexyl)-4-(4-methyl-2-((4-(1-methyl-1H-pyrazol-4-yl)benzyl)oxy)phenyl)pyridin-2(1H)-one]: the activation at 1 µM was found to be 3.5 ± 1.9%. Besides, where the note is “10 μM modulator”, the “ΔpEC50 [10 μM]: change in ACh pEC50” value was determined as 0.75±0.08 and the activation at 10 µM was determined as 10.7 ± 2%.

On to `Cc1cc(OCc2ccc(-c3cnn(C)c3)cc2)c(-c2ccn(C3CCCCC3O)c(=O)c2)cc1C` (centres unmarked) [Compound 7c, 4-(4,5-Dimethyl-2-((4-(1-methyl-1H-pyrazol-4-yl)benzyl)oxy)phenyl)-1-(2-hydroxycyclohexyl)pyridin-2(1H)-one], for which the activation at 1 µM is -1.7%. Besides, where the note is “10 μM modulator”, the “ΔpEC50 [10 μM]: change in ACh pEC50” value amounted to 0.41±0.08 and the activation at 10 µM came out at 2.8 ± 1.9%.

Consider `Cn1cc(-c2ccc(COc3ccncc3-c3ccn(C4CCCCC4O)c(=O)c3)cc2)cn1` (centres unmarked) [Compound 7d, 1’-(2-Hydroxycyclohexyl)-4-((4-(1-methyl-1H-pyrazol-4-yl)benzyl)oxy)-[3,4’-bipyridin]-2’(1’H)-one], for which the “ΔpEC50 [1 μM]: change in ACh pEC50” value was found to be 0.04±0.09 and the activation at 1 µM is -1.09%. Under “10 μM modulator”, the “ΔpEC50 [10 μM]: change in ACh pEC50” value is reported as 0.21±0.10 and the activation at 10 µM is 1.24 ± 3%.

For the molecule `Cn1cc(-c2ccc(COc3cnccc3-c3ccn(C4CCCCC4O)c(=O)c3)cc2)cn1` (centres unmarked) [Compound 7e, 1-(2-Hydroxycyclohexyl)-3’-((4-(1-methyl-1H-pyrazol-4-yl)benzyl)oxy)-[4,4’-bipyridin]-2(1H)-one], the “ΔpEC50 [1 μM]: change in ACh pEC50” value is given as 1.17±0.22 and the activation at 1 µM amounted to 41.9 ± 4.4%. Further, for the setting “10 μM modulator”, the “ΔpEC50 [10 μM]: change in ACh pEC50” value is recorded as 1.47±0.35 and the activation at 10 µM stood at 79.4 ± 2.9%.

In the case of `Cn1cc(-c2ccc(COc3cccc(O)c3-c3ccn(C4CCCCC4O)c(=O)c3)cc2)cn1` (centres unmarked) [Compound 7g, 4-(2-Hydroxy-6-((4-(1-methyl-1H-pyrazol-4-yl)benzyl)oxy)phenyl)-1-(2-hydroxycyclohexyl)pyridin-2(1H)-one], the “ΔpEC50 [1 μM]: change in ACh pEC50” value was 0.14±0.19 and the activation at 1 µM was found to be 12.8 ± 4.4%. For the same molecule, under “10 μM modulator”, the “ΔpEC50 [10 μM]: change in ACh pEC50” value is recorded as 0.35±0.34 and the activation at 10 µM came out at 45.8 ± 4.8%.

For `Cn1cc(-c2ccc(Cn3cccc(-c4ccn(C5CCCCC5O)c(=O)c4)c3=O)cc2)cn1` (centres unmarked) [Compound 9, 1’-(2-Hydroxycyclohexyl)-1-(4-(1-methyl-1H-pyrazol-4-yl)benzyl)-[3,4’-bipyridine]-2,2’(1H,1’H)-dione], the “ΔpEC50 [1 μM]: change in ACh pEC50” value is listed as 0.12±0.09 and the activation at 1 µM was found to be 5 ± 2%. Further, where the note is “10 μM modulator”, the “ΔpEC50 [10 μM]: change in ACh pEC50” value was 0.69±0.08 and the activation at 10 µM amounted to 5.6 ± 2%.

`Cn1cc(-c2ccc(COc3ccccc3-c3ccn(C4CCCCC4)c(=O)c3)cc2)cn1` [Compound 13b, 1-Cyclohexyl-4-(2-((4-(1-methyl-1H-pyrazol-4-yl)benzyl)oxy)phenyl)pyridin-2(1H)-one]: the activation at 1 µM was determined as 5 ± 1.7%. Further, under “10 μM modulator”, the “ΔpEC50 [10 μM]: change in ACh pEC50” value came out at 0.17±0.06 and the activation at 10 µM was -1.9%.

Regarding `COC1CCCCC1n1ccc(-c2ccccc2OCc2ccc(-c3cnn(C)c3)cc2)cc1=O` (centres unmarked) [Compound 14, 1-(2-Methoxycyclohexyl)-4-(2-((4-(1-methyl-1H-pyrazol-4-yl)benzyl)oxy)phenyl)pyridin-2(1H)-one], the “ΔpEC50 [1 μM]: change in ACh pEC50” value amounted to 0.03±0.06 and the activation at 1 µM was 5.8 ± 1.5%. Moreover, under “10 μM modulator”, the “ΔpEC50 [10 μM]: change in ACh pEC50” value is reported as 0.96±0.07 and the activation at 10 µM was determined as 22.1 ± 1.6%.

On to `Cn1cc(-c2ccc(COc3ccccc3-c3ccc(-c4ccccc4O)cc3)cc2)cn1` [Compound 19, 2“-((4-(1-Methyl-1H-pyrazol-4-yl)benzyl)oxy)-[1,1’:4’,1“-terphenyl]-2-ol], for which, for the setting “10 μM modulator”, the “ΔpEC50 [10 μM]: change in ACh pEC50” value was 0.27±0.06.

For the molecule `Cn1cc(-c2ccc(COc3ccsc3-c3cc(=O)n(C4CCCCC4O)cn3)cc2)cn1` (centres unmarked) [Compound 26b, 3-(2-Hydroxycyclohexyl)-6-(3-((4-(1-methyl-1H-pyrazol-4-yl)benzyl)oxy)thiophen-2-yl)pyrimidin-4(3H)-one], the activation at 1 µM was found to be 100%. Besides, under “10 μM modulator”, the activation at 10 µM is 100%.

With `Cn1cc(-c2ccc(COc3cccc(O)c3-c3cc(=O)n(C4CCCCC4O)cn3)cc2)cn1` (centres unmarked) [Compound 26d, 6-(2-Hydroxy-6-((4-(1-methyl-1H-pyrazol-4-yl)benzyl)oxy)phenyl)-3-(2-hydroxycyclohexyl)pyrimidin-4(3H)-one], the “ΔpEC50 [1 μM]: change in ACh pEC50” value is 1.49±0.42 and the activation at 1 µM was found to be 82.1 ± 3%. Also, under “10 μM modulator”, the activation at 10 µM came to 100%.

Regarding `O=c1cc(-c2ccccc2OCc2ccc(-n3cccn3)cc2)ncn1C1CCCCC1O` (centres unmarked) [Compound 27c, 6-(2-((4-(1H-Pyrazol-1-yl)benzyl)oxy)phenyl)-3-(2-hydroxycyclo-hexyl)pyrimidin-4(3H)-one], the activation at 1 µM worked out at 100%. Also, for the setting “10 μM modulator”, the activation at 10 µM is 100%.

As for `COC1CCCCC1n1cnc(-c2ccccc2OCc2ccc(-c3cnn(C)c3)cc2)cc1=O` (centres unmarked) [Compound 28a, 3-(2-Methoxycyclohexyl)-6-(2-((4-(1-methyl-1H-pyrazol-4-yl)benzyl)oxy)phenyl)pyrimidin-4(3H)-one], the “ΔpEC50 [1 μM]: change in ACh pEC50” value is recorded as 0.40±0.24 and the activation at 1 µM came out at 53.7 ± 3.8%. Moreover, where the note is “10 μM modulator”, the “ΔpEC50 [10 μM]: change in ACh pEC50” value is reported as 0.26±0.55 and the activation at 10 µM is 72.9 ± 3.6%.
